For 21 compounds, IC50 and Activity results are on record in ChEMBL document CHEMBL3352047, “Hybrids of phenylsulfonylfuroxan and coumarin as potent antitumor agents” (J Med Chem, 2014).

Calls of active or inactive are those of the source. The rule behind the calls is not given here.

For assay [1], the system named is MDA-MB-231. Put plainly: Antiproliferative activity against human MDA-MB-231 cells after 48 hrs by MTT assay. Conditions: MDA-MB-231, 48 h. On the technique in general: Formazan colour is commonly taken as a measure of viable cells.
Assay [2] concerns MDA-MB-231. Put plainly: Antiproliferative activity against gemcitabine-resistant human MDA-MB-231 cells after 48 hrs by MTT assay. Conditions: MDA-MB-231, 48 h.
In the next assay the test system is A549. Put plainly: cells. Particulars: Homo sapiens, A549, 48 h.
Another assay concerns HeLa. Put plainly: cells. Particulars: Homo sapiens, 48 h.
The subject of a further assay is HUVEC. Put plainly: cells. Particulars: Homo sapiens, 48 h.
Assay [3] in a line: Antiproliferative activity against human A2780/CDDP cells after 48 hrs by MTT assay.
For assay [4], the system named is A2780. Put plainly: Antiproliferative activity against human A2780 cells after 48 hrs by MTT assay. Particulars: A2780, 48 h.
For assay [5], the system named is A2780. Put plainly: Induction of nitric oxide generation in human A2780 cells at 100 uM after 150 mins by Griess assay. The format is functional. On the technique in general: Griess reagent forms a coloured azo dye with nitrite.
The nature of assay [6]: Antiproliferative activity against human T29 cells after 48 hrs by MTT assay. Particulars: T29, 48 h.
Assay [7] has as its system A2780. Description: Induction of nitric oxide generation in human A2780 cells at 100 to 1000 nM after 1 hr by DAF-FM DA staining-based assay. It is filed as functional, cell-based.

Description for HUVEC: Antiproliferative activity against HUVEC after 48 hrs by MTT assay

As usually defined, the IC50 is the concentration at which inhibition is half-maximal. The low end stands for greater potency, the high end for weaker potency. As for `Nc1ccn([C@@H]2O[C@H](CO)[C@@H](O)C2(F)F)c(=O)n1` [GEMCITABINE], the IC50 in the assay on MDA-MB-231 [1] is 25 nM; with MDA-MB-231 [2], greater than 10000 nM.
Regarding `CCc1cc(=O)c2ccc(OCCCOc3no[n+]([O-])c3S(=O)(=O)c3ccccc3)cc2o1`, the IC50 was determined as 400 nM in the assay on A549; 190 nM in the assay on HeLa; 350 nM in the assay on HUVEC; 890 nM in [3]; 290 nM with A2780 [4].
The like results for `CCc1cc(=O)c2ccc(Oc3no[n+]([O-])c3S(=O)(=O)c3ccccc3)cc2o1` were, in that order, 3290 nM, greater than 20000 nM, 3350 nM, 2990 nM and 130 nM.
In the case of `Cc1cc(=O)oc2cc(OCCCOc3no[n+]([O-])c3S(=O)(=O)c3ccccc3)ccc12`, the IC50 in the assay with A549 came to 280 nM; in the assay with HeLa it was 260 nM; in the assay with HUVEC, 680 nM; in assay [3] it was 360 nM; in the assay with A2780 [4] it was 350 nM.
For the compound `Cc1cc(=O)oc2cc(Sc3cccc(Cl)n3)ccc12`, the concentration for half-maximal inhibition (IC50) in the assay with A549 was found to be 3250 nM; with HeLa it was 1480 nM; in the assay on HUVEC it was 5890 nM; in assay [3] it was 1000 nM; with A2780 [4], 1350 nM. Also, in the assay with A2780 [5], the result was inactive.
`Cc1cc(=O)oc2c(C)c(Oc3no[n+]([O-])c3S(=O)(=O)c3ccccc3)ccc12`: the IC50 in the assay on A549 was 11700 nM; in the assay on HeLa it was greater than 20000 nM; with HUVEC, greater than 20000 nM; in [3] it was greater than 20000 nM; in the assay on A2780 [4] it was 9350 nM.
Consider `COCCOc1no[n+]([O-])c1S(=O)(=O)c1ccccc1`, for which the IC50 (in assay [6]; in the assay with A2780 [4]) was greater than 2000 nM in each case.
In the case of `O=S(=O)(c1ccccc1)c1no[n+]([O-])c1S(=O)(=O)c1ccccc1`, the IC50 with A549 was 2350 nM; with HeLa, 1450 nM; with HUVEC it was 4330 nM; in [3] it was 890 nM; with A2780 [4] it was 880 nM.
Consider `O=C(COc1ccc2ccc(=O)oc2c1)OCCOc1no[n+]([O-])c1S(=O)(=O)c1ccccc1`, for which the concentration for half-maximal inhibition (IC50) (with A549; with HeLa; with HUVEC; in assay [3]; in the assay with A2780 [4]) was greater than 20000 nM each time.
As to `Cc1cc(=O)oc2cc(OCCCCOc3no[n+]([O-])c3S(=O)(=O)c3ccccc3)ccc12`, the 50% inhibitory concentration (IC50) in the assay with A549 is 650 nM; with HeLa it was 320 nM; in the assay with HUVEC, 250 nM; in assay [3], 990 nM; in the assay on A2780 [4] it was 660 nM.
Consider `O=c1ccc2ccc(OCCOc3no[n+]([O-])c3S(=O)(=O)c3ccccc3)cc2o1`, for which the IC50 in the assay with A549 worked out at 260 nM; in the assay with HeLa, 110 nM; in the assay on HUVEC, 370 nM; in assay [3] it was 200 nM; in the assay on A2780 [4] it was 170 nM.
On to `CCOC(=O)N1CCN(/[N+]([O-])=N/Oc2ccc([N+](=O)[O-])cc2[N+](=O)[O-])CC1`, for which the concentration for half-maximal inhibition (IC50) was 1260 nM with A549; 3560 nM in the assay with HeLa; 5390 nM in the assay with HUVEC; 1050 nM in assay [3]; 630 nM with A2780 [4]. In the assay with A2780 [5], this compound yielded an Activity of 48 µM. In addition, in the assay with A2780 [7], the result was Active.
Turning to `O=c1ccc2ccc(Oc3no[n+]([O-])c3S(=O)(=O)c3ccccc3)cc2o1`, the IC50 with A549 was found to be 8860 nM; in the assay with HeLa, 4550 nM; with HUVEC it was 6750 nM; in assay [3] it was 3440 nM; in the assay with A2780 [4], 110 nM.
Regarding `Cc1cc(=O)oc2cc(OCC(=O)OCCOc3no[n+]([O-])c3S(=O)(=O)c3ccccc3)ccc12`, the IC50 with A549 was 6920 nM; in the assay with HeLa, 4310 nM; with HUVEC, greater than 20000 nM; in [3], 7360 nM; in the assay with A2780 [4], 3650 nM.
Take `Cc1cc(=O)oc2cc(O)ccc12` [HYMECROMONE]: the half-inhibitory concentration (IC50) (in assay [6]; in the assay with A2780 [4]) was greater than 2000 nM throughout.
For `Cc1cc(=O)oc2c(C)c(OCCOc3no[n+]([O-])c3S(=O)(=O)c3ccccc3)ccc12`, the concentration for half-maximal inhibition (IC50) turned out to be 1000 nM in the assay with A549; 250 nM in the assay with HeLa; 97 nM with HUVEC; 330 nM in assay [3]; 46 nM with A2780 [4].
In the case of `Cc1cc(=O)oc2cc(NCCOc3no[n+]([O-])c3S(=O)(=O)c3ccccc3)ccc12`, the 50% inhibitory concentration (IC50) with A549 amounted to 1440 nM; in the assay with HeLa it was 1990 nM; with HUVEC, 3040 nM; in assay [3] it was 5450 nM; in the assay on A2780 [4], 2450 nM.
For `Cc1cc(=O)oc2cc(SCCOc3no[n+]([O-])c3S(=O)(=O)c3ccccc3)ccc12`, in that order: 120 nM, 24 nM, 220 nM, 140 nM and 36 nM.
`Cc1cc(=O)oc2cc(N(C)CCOc3no[n+]([O-])c3S(=O)(=O)c3ccccc3)ccc12`: the IC50 turned out to be 1020 nM in the assay with A549; 510 nM in the assay with HeLa; 890 nM in the assay on HUVEC; 2380 nM in [3]; 950 nM with A2780 [4].
The like results for `Cc1cc(=O)oc2cc(Oc3no[n+]([O-])c3S(=O)(=O)c3ccccc3)ccc12` were, in that order, 5550 nM, greater than 20000 nM, 5430 nM, 3150 nM and 2990 nM.
Consider `CCc1cc(=O)c2ccc(OCCOc3no[n+]([O-])c3S(=O)(=O)c3ccccc3)cc2o1`, for which the 50% inhibitory concentration (IC50) is 5450 nM in the assay with A549; 830 nM in the assay on HeLa; 1030 nM in the assay on HUVEC; 2880 nM in assay [3]; 3330 nM in the assay on A2780 [4].
